Structures can show the parent of a compound that is named as a salt.
How the values were obtained:
B16F10 melanoma = settings: CTX 0.1 g/kg once a week, YK93-5 2 g/kg daily
Procedure: • Preparation of experimental animals: The experimental animals were adapted to the experimental environment (temperature 22°C±2°C, relative humidity 50%±2%) for 1 day. • Subcutaneous inoculation of B16F10 cell suspension to replicate a mouse melanoma model: Under sterile conditions, the tumor block was removed, ground into tumor fluid, the concentration was adjusted with physiological saline to 2.58 × 10^6 /ml, and 0.2 ml was taken to evenly inoculate subcutaneously on the armpit back of mice. On the next day, the animals were randomly grouped and administration began (recorded as Day 0). […] On the day of treatment, weight was measured, 20µL of blood was obtained by taking blood from the eye socket and the blood routine analysis was performed, the tumor block was peeled off, weighed and photographed, and the tumor suppression rate was calculated.
The tumor suppression rate [(The average weight of the tumor in the normal control group - the average weight of the tumor in the experimental group) / The average weight of the tumor in the normal control group × 100 %] and average value, standard deviation and standard errors of tumor weight were calculated. The data from the groups were compared with each other by T.TEST, and P<0.05 was considered as a significant difference.

mouse pain model = mouse pain model (1% acetic acid writhing); assay type: in vivo, Male Kunming mice; settings: within 15 minutes after 1% acetic acid intraperitoneally; Tramadol Hydrochloride 50mg/kg, YK93-5 2g/kg by gavage once a day for 7 days
Procedure: 30 minutes after the last administration, 1% acetic acid was administered intraperitoneally, and the writhing times of mice within 15 minutes was recorded, and the inhibition rate of drug-induced writhing reaction was calculated. The observation criteria were concave abdominal cavity, extended hind limbs, and raised buttocks.
The inhibition rate was calculated by (Mean number of writhing reactions in the normal control group - Mean number of writhing reactions in the treatment group)/Mean number of writhing reactions in the normal control group *100%. The mean value, standard deviation, and standard error of the number of writhing was recorded, and the data from the groups were compared with each other by T.TEST, and P<0.05 was considered as a significant difference.

[1] = system: mouse prostatic hyperplasia model; experiment: mouse prostatic hyperplasia model (propionate testosterone, androgen loading); assay type: in vivo, Male Kunming mice; settings: finasteride 1mg/kg, YK93-5 0.5g/kg
Procedure: • Animals: Male Kunming mice, weight: 18-20 grams • Drugs: propionate testosterone injection (Ningbo Second Hormon Factory); finasteride (Merck Sharp & Dohme, MSD), YK93-5 • Instruments: electronic balance, timer
• Normal control group; • Model group: Androgen loading Model; • Positive control group: finasteride (1mg/kg) group; • YK93-5 (0.5g/kg) group.
• Preparation of experimental animals: The experimental animals were adapted to the experimental environment (temperature 22°C±2°C, relative humidity 50%±2%) for 1 day. • Subcutaneous injection of propionate testosterone to replicate mice prostatic hyperplasia model: Mice were randomly grouped 10-12 in each group before the model being established. Propionate testosterone (0.01mg/kg) in soybean oil was injected subcutaneously, once a day for 30 consecutive days. Mice in the normal control group were injected subcutaneously with an equal volume of sodium carboxymethyl cellulose. Immediately after the model was established, finasteride 1mg/kg, or YK93-5 0.5g/kg were orally administered. Mice were weighed on the next day. After 30 days of administration, mice were weighed, executed. The prostate was excised through a median incision in the lower abdomen, the wet weight was weighed, and the prostate index was calculated by the wet weight of the prostate (mg)/body weight of the mouse (g). […] with 4% paraformaldehyde, embedded in paraffin, and cut into thin slices with the largest surface. Hematoxylin and eosin staining were used to examine the pathological changes of tissue slices.
The average value, standard deviation and standard error of the prostate index and pathological score in each group were calculated. The data from the groups were compared with each other by TTEST, and P<0.05 was considered as a significant difference.

Procedure for Lewis lung cancer: • Preparation of experimental animals: The experimental animals were adapted to the experimental environment (temperature 22°C±2°C, relative humidity 50%±2%) for 1 day. • Subcutaneous inoculation of Lewis cell suspension to replicate mouse breast cancer model: The Lewis tumor tissue was ground into a suspension with a glass homogenizer, the tumor suspension was aspirated with a syringe, the number of live cells was calculated, the concentration of the cells was adjusted to 2.6*10^6/ml with physiological saline, and then the suspension was injected to the left armpit of the mouse with 0.2 ml/mouse. […] On the day of the treatment, the weight was measured, 20µl of blood was obtained from the orbital blood and the routine blood analysis was performed. The tumor blocks were stripped, weighed and photographed, and the tumor suppression rate was calculated.
The tumor suppression rate [(The average weight of the tumor in the normal control group - the average weight of the tumor in the experimental group) / The average weight of the tumor in the normal control group × 100 %] and the average value, standard deviation and standard errors of tumor weight were calculated. The data from the groups were compared with each other by T.TEST, and P<0.05 was considered as a significant difference.

`O=P1(N(CCCl)CCCl)NCCCO1` (centres unmarked) [Cyclophosphamide] was tested, and the “Tumor weight” value (B16F10 melanoma) was 0.26 ± 0.11 g, the “Change of weight (g) After administration” value (Lewis lung cancer; body weight after administration, cyclophosphamide 0.1 g/kg intraperitoneally single time, YK93-5 2 g/kg intragastric daily for 17 days) was 21.07 ± 1.61 g and the “Change of weight (g) Before administration” value (Lewis lung cancer; body weight before administration) was 20.52 ± 1.83 g. For the same molecule, the “Tumor suppression (%)” value (Lewis lung cancer; cyclophosphamide 0.1 g/kg intraperitoneally single time, YK93-5 2 g/kg intragastric daily for 17 days) was 91.22%.
`COc1cccc(C2(O)CCCCC2CN(C)C)c1` (centres unmarked) [Tramadol Hydrochloride] showed a Number of writhing (mouse pain model) of 1.75±4.56.
`CC(C)(C)NC(=O)[C@H]1CC[C@H]2[C@@H]3CC[C@H]4NC(=O)C=C[C@]4(C)[C@H]3CC[C@]12C` [finasteride] was tested, and the “wet weight of the prostate” value ([1]; after 30 days of oral administration) was 40.4 ± 9.2 mg, the “pathological damage of prostatic hyperplasia (histopathology, H&E)” value ([1]; compared with the model group, 30 days oral) was “the trend of hyperplasia improves, but there is no statistical difference” and the prostate index ([1]; wet weight of the prostate (mg)/body weight of the mouse (g), 30 days oral) was 0.95±0.24.
